Assay results published in PubChem BioAssay AID1963449 (Molecular Pharmacology Branch, DTP, NCI, 2024).

System: 596521-263-R-J1-PDC complex spheroid growth
Test: Anticancer human tumor 596521-263-R-J1-PDC patient-derived soft tissue sarcoma cell line growth inhibition [Asc]
Details: for IC50: curve of first compound; for viability, T/C: stronger effect = lower value; active = viability on the fitted dose curve at most 10% of control; inactive = the rest
In short: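 Stromal components (HUVEC and hMSC) are co-assembled with the cancer cells into multicellular spheroids. Drugs are then added singly or paired, at concentrations falling by half-log increments from a clinically achievable maximum, capped at 10 microM without known Cmax.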
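Note: spheroids exposed to compounds for 7 days.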

Cc1nc(N2CCC3(CC2)COC(C)C3N)c(CO)nc1Sc1ccnc(N)c1Cl (configuration not stated) + Cc1c(S(C)(=O)=O)c(-c2cc(F)cc(N3CCN(c4ccc(NS(=O)(=O)c5ccc(NC(CCN6CCC(C(=O)OCCCP(=O)(O)O)CC6)CSc6ccccc6)c(S(=O)(=O)C(F)(F)F)c5)cc4)CC3)c2)c(-c2ccc(Cl)cc2)n1C(C)C
2.02 µM: IC50 (second compound 1 µM)
0.0977 µM: IC50 (second compound 10 µM)
> 3 µM: IC50 (second compound 0.0316 µM) | IC50 (second compound 0.1 µM) | IC50 (second compound 0.316 µM)
0.443 µM: IC50 (second compound 3.16 µM)
inactive: viability, T/C (second compound 0.0316 µM, first compound 0.00949 µM) 85.5% | viability, T/C (second compound 0.0316 µM, first compound 0.03 µM) 99.6% | viability, T/C (second compound 0.0316 µM, first compound 0.0949 µM) 77.5% | viability, T/C (second compound 0.0316 µM, first compound 0.3 µM) 89% | viability, T/C (second compound 0.0316 µM, first compound 0.949 µM) 82.9% | viability, T/C (second compound 0.0316 µM, first compound 3 µM) 61.9% | viability, T/C (second compound 0.1 µM, first compound 0.00949 µM) 87.8% | viability, T/C (second compound 0.1 µM, first compound 0.03 µM) 100% | viability, T/C (second compound 0.1 µM, first compound 0.0949 µM) 87.2% | viability, T/C (second compound 0.1 µM, first compound 0.3 µM) 93.7% | viability, T/C (second compound 0.1 µM, first compound 0.949 µM) 84.6% | viability, T/C (second compound 0.1 µM, first compound 3 µM) 59.5% | viability, T/C (second compound 0.316 µM, first compound 0.00949 µM) 86.4% | viability, T/C (second compound 0.316 µM, first compound 0.03 µM) 93.7% | viability, T/C (second compound 0.316 µM, first compound 0.0949 µM) 87.2% | viability, T/C (second compound 0.316 µM, first compound 0.3 µM) 81.4% | viability, T/C (second compound 0.316 µM, first compound 0.949 µM) 68.9% | viability, T/C (second compound 0.316 µM, first compound 3 µM) 59.7% | viability, T/C (second compound 1 µM, first compound 0.00949 µM) 90.6% | viability, T/C (second compound 1 µM, first compound 0.03 µM) 85% | viability, T/C (second compound 1 µM, first compound 0.0949 µM) 73.4% | viability, T/C (second compound 1 µM, first compound 0.3 µM) 76.7% | viability, T/C (second compound 1 µM, first compound 0.949 µM) 64.5% | viability, T/C (second compound 1 µM, first compound 3 µM) 42.1% | viability, T/C (second compound 3.16 µM, first compound 0.00949 µM) 62.6% | viability, T/C (second compound 3.16 µM, first compound 0.03 µM) 63.2% | viability, T/C (second compound 3.16 µM, first compound 0.0949 µM) 57.4% | viability, T/C (second compound 3.16 µM, first compound 0.3 µM) 50% | viability, T/C (second compound 3.16 µM, first compound 0.949 µM) 47.3% | viability, T/C (second compound 3.16 µM, first compound 3 µM) 36.5% | viability, T/C (second compound 10 µM, first compound 0.00949 µM) 48.5% | viability, T/C (second compound 10 µM, first compound 0.03 µM) 54.4% | viability, T/C (second compound 10 µM, first compound 0.0949 µM) 52.2% | viability, T/C (second compound 10 µM, first compound 0.3 µM) 42.6% | viability, T/C (second compound 10 µM, first compound 0.949 µM) 36% | viability, T/C (second compound 10 µM, first compound 3 µM) 28.2%
